# Reference: ChEMBL document CHEMBL5131534, “Identification of 2-Pyridinylindole-Based Dual Antagonists of Toll-like Receptors 7 and 8 (TLR7/8)” (ACS Med Chem Lett, 2022)
# Tests used:
# Mus musculus [1] = experiment: Anti-inflammatory activity against MRL/Ipr Systemic lupus erythematosus mouse model assessed as inhibition of anti-dsDNA Ab titer at 5 mg/kg, po administered for 8 weeks and measured 24 hrs post final dose relative to control; format: functional; parameters: scale not given: the % may be the effect or the level left; details: time 1368 hrs
# [2] = AUClast in mouse blood at 15 mg/kg, po; format: ADME, organism-based; parameters: time 0 - last, dose 15 mg/kg, route po
# Toll-like receptor 9 = target: T1, Toll-like receptor 9 (Mus musculus, UniProt Q9EQU3); experiment: Antagonist activity at ODN-2216 stimulated TLR9 in mouse whole blood assessed as inhibition of IL-6 production by ELISA analysis; format: tissue-based
# T1 sequence (Q9EQU3 whole entry): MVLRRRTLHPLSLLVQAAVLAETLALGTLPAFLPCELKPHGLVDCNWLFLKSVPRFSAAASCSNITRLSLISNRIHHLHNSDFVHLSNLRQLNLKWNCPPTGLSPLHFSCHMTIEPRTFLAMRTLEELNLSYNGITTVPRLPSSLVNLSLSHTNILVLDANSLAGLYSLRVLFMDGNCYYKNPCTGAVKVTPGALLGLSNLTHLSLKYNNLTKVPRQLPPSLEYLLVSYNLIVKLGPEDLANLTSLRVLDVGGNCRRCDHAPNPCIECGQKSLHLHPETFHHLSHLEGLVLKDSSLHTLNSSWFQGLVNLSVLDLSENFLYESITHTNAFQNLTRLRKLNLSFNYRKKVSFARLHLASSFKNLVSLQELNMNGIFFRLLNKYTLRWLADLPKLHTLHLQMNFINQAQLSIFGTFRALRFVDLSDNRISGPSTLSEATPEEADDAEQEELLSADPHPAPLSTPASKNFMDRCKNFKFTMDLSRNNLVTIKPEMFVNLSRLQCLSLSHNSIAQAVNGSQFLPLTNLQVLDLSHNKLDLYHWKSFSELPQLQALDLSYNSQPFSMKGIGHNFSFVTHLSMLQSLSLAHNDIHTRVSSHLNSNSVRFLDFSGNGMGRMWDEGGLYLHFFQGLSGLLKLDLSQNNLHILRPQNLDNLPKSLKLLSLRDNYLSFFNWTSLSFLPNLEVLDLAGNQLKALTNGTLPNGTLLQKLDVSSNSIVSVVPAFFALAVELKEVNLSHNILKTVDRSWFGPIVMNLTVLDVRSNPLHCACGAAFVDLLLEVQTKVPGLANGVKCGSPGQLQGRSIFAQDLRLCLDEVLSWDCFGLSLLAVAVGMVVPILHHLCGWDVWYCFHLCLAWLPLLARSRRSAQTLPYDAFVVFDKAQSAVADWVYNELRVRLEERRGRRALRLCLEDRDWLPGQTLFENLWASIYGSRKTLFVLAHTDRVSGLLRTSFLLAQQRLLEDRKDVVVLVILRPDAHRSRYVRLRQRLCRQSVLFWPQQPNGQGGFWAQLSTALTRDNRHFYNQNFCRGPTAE
# [3] = In vivo antagonist activity at TRL9 in C57BL/6 mouse assessed as inhibition of ODN1585 stimulated IL-6 production at 30 mg/kg,po for 30 minutes and followed by ODN1585 addition measured after 90 mins by ELISA analysis relative to control; format: functional; parameters: scale not given: the % may be the effect or the level left; details: time 120 min, 2 h
# Mus musculus [4] = experiment: Anti-inflammatory activity against MRL/Ipr Systemic lupus erythematosus mouse model assessed as inhibition of proteinuria at 5 mg/kg, po administered for 8 weeks and measured 24 hrs post final dose relative to control; format: functional; parameters: scale not given: the % may be the effect or the level left; details: time 1368 hrs
# Toll-like receptor 7 = target: T2, Toll-like receptor 7 (Homo sapiens, UniProt Q9NYK1); experiment: Antagonist activity at gardiquimod stimulated TRL7 in human whole blood assessed as inhibition of IL-6 production by ELISA analysis; format: tissue-based
# T2 sequence (Q9NYK1 whole entry): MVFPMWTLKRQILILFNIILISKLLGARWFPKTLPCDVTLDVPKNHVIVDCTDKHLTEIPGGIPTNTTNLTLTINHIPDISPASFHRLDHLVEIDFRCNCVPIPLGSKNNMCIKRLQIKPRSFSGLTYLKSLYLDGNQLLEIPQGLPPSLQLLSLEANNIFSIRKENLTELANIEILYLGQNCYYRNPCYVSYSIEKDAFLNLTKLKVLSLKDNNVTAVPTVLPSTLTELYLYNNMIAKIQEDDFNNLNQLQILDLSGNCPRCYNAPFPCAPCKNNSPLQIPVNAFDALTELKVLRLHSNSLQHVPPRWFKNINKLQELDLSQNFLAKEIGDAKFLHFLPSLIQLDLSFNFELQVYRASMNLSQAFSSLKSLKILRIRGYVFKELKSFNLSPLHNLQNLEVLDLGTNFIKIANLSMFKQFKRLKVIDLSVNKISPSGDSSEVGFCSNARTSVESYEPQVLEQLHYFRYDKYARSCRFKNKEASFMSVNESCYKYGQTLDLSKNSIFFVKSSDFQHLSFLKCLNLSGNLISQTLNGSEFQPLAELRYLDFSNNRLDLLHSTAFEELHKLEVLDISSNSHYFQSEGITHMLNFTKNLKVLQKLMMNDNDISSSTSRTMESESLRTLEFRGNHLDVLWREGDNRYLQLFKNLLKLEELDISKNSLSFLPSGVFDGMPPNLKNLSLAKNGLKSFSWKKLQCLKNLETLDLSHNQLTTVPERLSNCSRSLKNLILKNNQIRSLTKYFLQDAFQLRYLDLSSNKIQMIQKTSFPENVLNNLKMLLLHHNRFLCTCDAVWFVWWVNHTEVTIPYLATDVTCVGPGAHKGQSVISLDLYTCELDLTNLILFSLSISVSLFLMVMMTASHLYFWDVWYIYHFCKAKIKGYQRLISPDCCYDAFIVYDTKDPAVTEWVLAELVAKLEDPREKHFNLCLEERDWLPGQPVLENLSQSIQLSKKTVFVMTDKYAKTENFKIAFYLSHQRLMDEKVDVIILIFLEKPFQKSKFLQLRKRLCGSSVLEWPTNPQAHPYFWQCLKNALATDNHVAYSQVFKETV
# [5] = Toxicity in MRL/Ipr Systemic lupus erythematosus mouse model assessed as relative spleen weight at 0.1 mg/kg, po administered for 8 weeks and measured 24 hrs post final relative to control; format: organism-based; details: in vivo, 1368 h
# [6] = Plasma protein binding in rat assessed as free fraction; format: ADME, cell-free
# Toll-like receptor 4 = Toll-like receptor 4 (Homo sapiens, UniProt O00206); experiment: Antagonist activity at […] stimulated human TRL4 overexpressed in HEK293 cells assessed as inhibition of NF kappa B/Ap-1 activation preincubated with compound for 30 mins followed by […] stimulation measured after 22 hrs by SEAP reporter assay; format: cell-based
# Sequence of Toll-like receptor 4 (O00206 whole entry): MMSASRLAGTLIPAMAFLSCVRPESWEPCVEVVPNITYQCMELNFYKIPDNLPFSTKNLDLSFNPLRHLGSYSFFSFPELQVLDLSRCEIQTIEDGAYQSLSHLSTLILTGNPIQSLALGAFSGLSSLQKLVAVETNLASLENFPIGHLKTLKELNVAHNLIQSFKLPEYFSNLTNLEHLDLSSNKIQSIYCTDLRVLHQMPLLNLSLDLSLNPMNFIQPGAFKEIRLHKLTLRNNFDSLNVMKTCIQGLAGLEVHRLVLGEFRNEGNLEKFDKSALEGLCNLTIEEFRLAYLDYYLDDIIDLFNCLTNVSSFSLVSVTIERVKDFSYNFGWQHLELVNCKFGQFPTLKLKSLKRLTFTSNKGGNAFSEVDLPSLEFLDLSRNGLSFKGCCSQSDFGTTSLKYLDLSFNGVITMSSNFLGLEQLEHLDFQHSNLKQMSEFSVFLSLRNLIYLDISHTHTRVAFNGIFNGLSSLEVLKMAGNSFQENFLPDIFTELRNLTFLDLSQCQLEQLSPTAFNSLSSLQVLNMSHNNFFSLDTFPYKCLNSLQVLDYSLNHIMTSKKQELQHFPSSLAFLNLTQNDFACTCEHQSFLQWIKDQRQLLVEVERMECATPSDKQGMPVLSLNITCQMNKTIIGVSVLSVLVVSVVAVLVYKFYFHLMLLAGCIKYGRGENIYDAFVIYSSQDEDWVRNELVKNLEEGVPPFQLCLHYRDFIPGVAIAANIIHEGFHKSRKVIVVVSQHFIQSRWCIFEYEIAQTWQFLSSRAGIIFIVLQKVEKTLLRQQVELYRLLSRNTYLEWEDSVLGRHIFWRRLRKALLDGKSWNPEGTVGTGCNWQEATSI
compound,measurement,setting,value
Cc1cc(-c2[nH]c3ccc(C4CCNCC4)cc3c2C(C)C)cc(C)n1,Activity,Mus musculus [1],20%
same,AUC(0-t),[2],2.77 µM·h
same,IC50,Toll-like receptor 9,> 5000 nM
same,Activity,[3],38%
same,Activity,Mus musculus [4],92%
same,IC50,Toll-like receptor 7,1.4 nM
same,Activity,[5],28%
same,fraction unbound,[6],0.11
same,IC50,Toll-like receptor 4,> 10000 nM
